Measured values published in US12581252B2, “Substituted pyrrolo[3,4-b]pyridines as PI3K-α inhibitors” (Relay Therapeutics, Inc., priority 2020, dated 2026).

Molecular target: H1047R PIK3CA enzyme (Homo sapiens, UniProt P42336, H1047R)
Assay: ADP-Glo Biochemical PIK3CA Kinase Assay

Chain of H1047R PIK3CA enzyme (P42336 whole entry H1047R): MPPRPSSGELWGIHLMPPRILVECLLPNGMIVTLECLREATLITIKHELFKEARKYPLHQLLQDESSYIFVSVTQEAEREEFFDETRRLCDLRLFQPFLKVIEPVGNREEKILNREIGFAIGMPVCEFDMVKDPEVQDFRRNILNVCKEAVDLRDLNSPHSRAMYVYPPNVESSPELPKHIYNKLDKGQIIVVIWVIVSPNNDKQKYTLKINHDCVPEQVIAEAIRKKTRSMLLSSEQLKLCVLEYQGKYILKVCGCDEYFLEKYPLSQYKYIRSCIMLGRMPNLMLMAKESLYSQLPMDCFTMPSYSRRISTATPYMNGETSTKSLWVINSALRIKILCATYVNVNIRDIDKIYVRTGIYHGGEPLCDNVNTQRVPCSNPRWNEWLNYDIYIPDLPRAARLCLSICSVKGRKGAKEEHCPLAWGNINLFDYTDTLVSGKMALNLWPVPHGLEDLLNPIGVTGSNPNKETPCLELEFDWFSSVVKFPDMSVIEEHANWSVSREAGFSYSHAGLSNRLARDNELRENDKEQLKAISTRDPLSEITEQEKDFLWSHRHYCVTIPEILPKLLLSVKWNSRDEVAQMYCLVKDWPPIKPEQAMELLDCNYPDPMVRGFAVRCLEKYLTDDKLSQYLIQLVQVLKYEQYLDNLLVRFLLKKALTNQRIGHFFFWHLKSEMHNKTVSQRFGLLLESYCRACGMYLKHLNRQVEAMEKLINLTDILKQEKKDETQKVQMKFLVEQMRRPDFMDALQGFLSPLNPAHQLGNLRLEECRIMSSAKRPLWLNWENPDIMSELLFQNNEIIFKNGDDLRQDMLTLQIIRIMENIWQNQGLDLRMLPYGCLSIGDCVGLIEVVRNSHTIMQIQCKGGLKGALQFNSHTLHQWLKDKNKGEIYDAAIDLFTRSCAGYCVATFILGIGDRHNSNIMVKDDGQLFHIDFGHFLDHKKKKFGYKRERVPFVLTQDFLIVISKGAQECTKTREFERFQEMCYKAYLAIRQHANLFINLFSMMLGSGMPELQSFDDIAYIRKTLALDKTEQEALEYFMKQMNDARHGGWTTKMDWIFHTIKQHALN
Chain of H1047R PIK3CA enzyme (P27986 whole entry partner): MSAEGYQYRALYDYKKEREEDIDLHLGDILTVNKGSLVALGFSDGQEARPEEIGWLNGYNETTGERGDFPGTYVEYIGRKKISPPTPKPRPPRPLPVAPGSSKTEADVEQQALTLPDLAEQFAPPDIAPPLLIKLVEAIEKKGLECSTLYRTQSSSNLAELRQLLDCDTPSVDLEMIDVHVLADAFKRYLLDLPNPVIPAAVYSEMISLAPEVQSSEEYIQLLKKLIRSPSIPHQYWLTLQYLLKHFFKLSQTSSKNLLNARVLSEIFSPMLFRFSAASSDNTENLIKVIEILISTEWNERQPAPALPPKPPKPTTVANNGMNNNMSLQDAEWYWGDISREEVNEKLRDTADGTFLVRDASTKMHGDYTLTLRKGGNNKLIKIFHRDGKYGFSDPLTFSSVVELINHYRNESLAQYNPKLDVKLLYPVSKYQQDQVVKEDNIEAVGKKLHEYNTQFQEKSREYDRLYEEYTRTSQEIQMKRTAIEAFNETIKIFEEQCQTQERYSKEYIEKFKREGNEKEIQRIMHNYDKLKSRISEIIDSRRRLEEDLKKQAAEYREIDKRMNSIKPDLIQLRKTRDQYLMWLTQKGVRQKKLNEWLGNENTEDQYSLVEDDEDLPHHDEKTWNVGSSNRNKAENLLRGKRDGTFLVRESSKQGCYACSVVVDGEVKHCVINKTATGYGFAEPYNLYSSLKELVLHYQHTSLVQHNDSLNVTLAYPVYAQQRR

Row | IC50 | SMILES
1 | 10000 to 100000 nM | N[C@@H]1CCC[C@H](C(=O)Nc2cc(-c3ccc4ncnn4c3)cc3c2C(c2cc(F)ccc2Cl)NC3=O)C1 (mixture of isomers) [Compound I-1844]
2 | ≤ 100 nM | N#Cc1cccnc1-c1cc(NC(=O)c2cc(F)cc(C(F)(F)F)c2)c2c(c1)C(=O)NC2c1cc(F)ccc1Cl (stereo not shown) [Compound I-1408]
3 | 1000 to 10000 nM | O=C1N[C@@H](c2cc(F)ccc2Cl)c2c(NC(=O)N3C[C@H](C(F)F)c4ccccc43)cccc21 (single isomer, unassigned) [Compound I-2332]
4 | 500 to 1000 nM | O=C1N[C@H](c2cc(F)ccc2Cl)c2c(NC(=O)N3C[C@@](O)(C(F)F)c4cc(F)ccc43)cccc21 (single isomer, unassigned) [Compound I-2556]
5 | 1000 to 10000 nM | COCc1cc(NC(=O)N2C[C@@](O)(C(F)(F)F)c3cc(F)ccc32)c2c(c1)C(=O)N[C@H]2c1cc(F)ccc1Cl (single isomer, unassigned) [Compound I-2543]
6 | 10000 to 100000 nM | O=C1N[C@H](c2cc(F)ccc2Cl)c2c(Nc3cn[nH]c3)cc(Br)cc21 (racemic) [Compound I-2183]
7 | ≤ 100 nM | O=C(Nc1cc(C2CS(=O)(=O)C2)cc2c1C(c1cc(F)ccc1Cl)NC2=O)c1cc(F)cc(C(F)(F)F)c1 (stereo not shown) [Compound I-1196]
8 | ≤ 100 nM | CC(C)(O)c1cc(NC(=O)c2coc3c(F)cc(F)cc23)c2c(c1)C(=O)NC2c1cc(F)ccc1C(F)F (stereo not shown) [Compound I-290]
9 | 1000 to 10000 nM | CCC[C@]1(O)CN(C(=O)Nc2cccc3c2[C@H](c2cc(F)ccc2Cl)NC3=O)c2ccc(F)cc21 (single isomer, unassigned) [Compound I-2458]
10 | ≤ 100 nM | N#Cc1cn(-c2cc(NC(=O)c3cc(F)cc(C(F)(F)F)c3)c3c(c2)C(=O)NC3c2cc(F)ccc2Cl)cn1 (stereo not shown) [Compound I-1127]
11 | 1000 to 10000 nM | C[C@H](C#N)Cn1cc(-c2cc(NC(=O)N3C[C@@H](O)c4cc(F)ccc43)c3c(c2)C(=O)N[C@H]3c2cc(F)ccc2Cl)cn1 (single isomer, unassigned) [Compound I-2502]
12 | ≤ 100 nM | O=C(Nc1cccc2c1C(c1cc(F)ccc1Br)NC2=O)c1cc(F)cc(C(F)(F)F)c1 (stereo not shown) [Compound I-628]
13 | 10000 to 100000 nM | O=C(Nc1cccc2c1[C@H]([C@@H]1CCCCC1=O)NC2=O)c1cc(F)cc(C(F)(F)F)c1 (racemic) [Compound I-2036]
14 | 10000 to 100000 nM | O=C1N[C@H](c2cc(F)ccc2Cl)c2c(NC(=O)N3C[C@@](O)(C(F)(F)F)c4ccccc43)cccc21 (single isomer, unassigned) [Compound I-2383]
15 | ≤ 100 nM | CC1(Cc2cc(NC(=O)c3cc(F)cc(C(F)(F)F)c3)c3c(c2)C(=O)N[C@H]3c2cc(F)ccc2Cl)COC1 [Compound I-818]
16 | ≤ 100 nM | CC(C)(O)c1cc(NC(=O)c2cc(F)cc(C(F)(F)F)c2)c2c(c1)C(=O)NC2c1ccccc1C(F)F (stereo not shown) [Compound I-355]
17 | 1000 to 10000 nM | O=C1N[C@@H](c2cc(F)ccc2Cl)c2c(NC(=O)N3C[C@@](O)(C(F)F)c4cc(F)ccc43)cccc21 (single isomer, unassigned) [Compound I-2555]
18 | 500 to 1000 nM | O=C(Nc1cc(Br)cc2c1C(c1cc(F)ccc1Cl)NC2=O)c1cc(F)cc(CC(F)(F)F)c1 (stereo not shown) [Compound I-1582]
19 | 10000 to 100000 nM | CC(C)N1C[C@H](O)C[C@H]1C(=O)Nc1cccc2c1C(c1cc(F)ccc1Cl)NC2=O (mixture of isomers) [Compound I-2392]
20 | ≤ 100 nM | O=C(Nc1cc(Nc2ccccc2)cc2c1C(c1cc(F)ccc1Cl)NC2=O)c1cc(F)cc(C(F)(F)F)c1 (stereo not shown) [Compound I-1213]
21 | 10000 to 100000 nM | CC1CN(C(=O)Nc2cc(Br)cc3c2C(c2cc(F)ccc2Cl)NC3=O)CCN1C (racemic) [Compound I-686]
22 | ≤ 100 nM | N#Cc1c(-c2cc(NC(=O)c3cc(F)cc(C(F)(F)F)c3)c3c(c2)C(=O)N[C@H]3c2cc(F)ccc2Cl)cnn1C(F)F [Compound I-1921]
23 | 1000 to 10000 nM | CC(C)(O)c1cc(NC(=O)c2cc(F)cc(C(F)(F)F)c2)c2c(n1)C(=O)N[C@@H]2c1cc(F)ccc1Cl [Compound I-271]
24 | 1000 to 10000 nM | O=C(Nc1cccc2c1C(c1cc(O)ccc1Cl)NC2=O)c1cc(F)cc(C(F)(F)F)c1 (stereo not shown) [Compound I-428]
25 | ≤ 100 nM | Cn1nc(C(F)F)cc1-c1cc(NC(=O)c2cc(F)cc(C(F)(F)F)c2)c2c(c1)C(=O)N[C@H]2c1cc(F)ccc1Cl [Compound I-1881]
26 | ≤ 100 nM | CNC(=O)c1ccc(NC(=O)c2csc3ccccc23)c2c1C(=O)NC2c1ccccc1C (stereo not shown) [Compound I-150]
27 | ≤ 100 nM | O=C(Nc1cccc2c1C(c1cc(Br)ccc1Cl)NC2=O)c1cc(F)cc(C(F)(F)F)c1 (stereo not shown) [Compound I-446]
28 | 10000 to 100000 nM | O=C1NC(c2cc(F)ccc2Cl)c2c(NC(=O)[C@@H]3CC[C@@H](O)C3)cc(Br)cc21 (single isomer, unassigned) [Compound I-1976]

The remaining lines, values behind:

Row | SMILES | IC50
29 | Cc1ccccc1C1NC(=O)c2c(C(=O)O)ccc(NC(=O)c3nsc4ccccc34)c21 (stereo not shown) [Compound I-278] | 500 to 1000 nM
30 | Nc1cc(C(F)(F)F)cc(C(=O)Nc2cccc3c2C(c2cc(F)ccc2Cl)NC3=O)n1 (stereo not shown) [Compound I-726] | 1000 to 10000 nM
31 | O=C(Nc1cc(Br)cc2c1C(c1cc(F)ccc1Cl)NC2=O)c1cccc(Cl)c1 (stereo not shown) [Compound I-573] | 500 to 1000 nM
32 | Cn1c(Cl)cc(C(=O)Nc2cc(Br)cc3c2[C@H](c2cc(F)ccc2Cl)NC3=O)cc1=O [Compound I-2095] | 10000 to 100000 nM
33 | C[C@@H](C#N)Cn1cc(-c2cc(NC(=O)N3C[C@@H](O)c4cc(F)ccc43)c3c(c2)C(=O)N[C@@H]3c2cc(F)ccc2Cl)cn1 (single isomer, unassigned) [Compound I-2504] | 1000 to 10000 nM
34 | O=C1NC(c2cc(F)ccc2Cl)c2c(NC(=O)[C@H](O)c3cc(F)cc(F)c3)cc(Br)cc21 (single isomer, unassigned) [Compound I-804] | 10000 to 100000 nM
35 | O=C(Nc1cc(-c2ccc3cc[nH]c3c2)cc2c1C(c1cc(F)ccc1Cl)NC2=O)c1cc(F)cc(C(F)(F)F)c1 (stereo not shown) [Compound I-855] | 100 to 500 nM
36 | O=C(Nc1cc(-c2ccc3ncccc3c2)cc2c1C(c1cc(F)ccc1Cl)NC2=O)c1cc(F)cc(C(F)(F)F)c1 (stereo not shown) [Compound I-737] | ≤ 100 nM
37 | O=C(Nc1cc(Cc2ccc3nncn3c2)cc2c1C(c1cc(F)ccc1Cl)NC2=O)c1cc(F)cc(C(F)(F)F)c1 (stereo not shown) [Compound I-1528] | ≤ 100 nM
38 | [2H]c1nc2cnc(-c3cc(NC(=O)c4cc(F)cc(C(F)(F)F)c4)c4c(c3)C(=O)N[C@H]4c3cc(F)ccc3Cl)cn2n1 [Compound I-2069] | ≤ 100 nM
39 | O=C(Nc1cccc2c1[C@H]([C@@H]1COCCN1)NC2=O)c1cc(F)cc(C(F)(F)F)c1 (racemic) [Compound I-1901] | 10000 to 100000 nM
40 | O=C(Nc1cc(-c2ccc3ncnn3c2)cc2c1[C@H](c1cc(Cl)ccc1Cl)NC2=O)c1cc(F)cc(C(F)(F)F)c1 [Compound I-1053] | 500 to 1000 nM
41 | O=C1N[C@H](c2cc(F)ccc2Cl)c2c(NC(=O)N3C[C@](O)(CO)c4ccccc43)cccc21 [Compound I-2168] | 10000 to 100000 nM
42 | O=C1N[C@@H](c2cc(F)ccc2Cl)c2c(NC(=O)N3C[C@H](O)c4ccc(F)cc43)cccc21 (stereo in doubt) [Compound I-2172] | 500 to 1000 nM
43 | O=C1NCc2c(NC(=O)N3CCCC[C@H]3Cc3ccccc3)cccc21 (stereo in doubt) [Compound I-988] | 10000 to 100000 nM
44 | CC(C)(O)Cn1cc(-c2cc(NC(=O)c3cc(F)cc(C(F)(F)F)c3)c3c(c2)C(=O)N[C@@H]3c2cc(F)ccc2Cl)cn1 [Compound I-1096] | 10000 to 100000 nM
45 | Nc1csnc1C(=O)Nc1cc(Br)cc2c1C(c1cc(F)ccc1Cl)NC2=O (stereo not shown) [Compound I-1425] | 10000 to 100000 nM

Row | SMILES | IC50
46 | Cc1cc2ncnn2cc1-c1cc(NC(=O)c2cc(F)cc(C(F)(F)F)c2)c2c(c1)C(=O)N[C@H]2c1cc(F)ccc1Cl [Compound I-1874] | ≤ 100 nM
47 | O=C(Nc1cc(-n2cnc3ncccc32)cc2c1C(c1cc(F)ccc1Cl)NC2=O)c1cc(F)cc(C(F)(F)F)c1 (stereo not shown) [Compound I-1233] | ≤ 100 nM
48 | N#C[C@H]1C[C@@H](Oc2cc(NC(=O)c3cc(F)cc(C(F)(F)F)c3)c3c(c2)C(=O)N[C@@H]3c2cc(F)ccc2Cl)C1 [Compound I-1333] | 1000 to 10000 nM
49 | O=C(Nc1cccc2c1C(Cc1ccccc1)NC2=O)c1cc(F)cc(C(F)(F)F)c1 (stereo not shown) [Compound I-1673] | 10000 to 100000 nM
50 | Cc1ccccc1C1NC(=O)c2c(N)ncc(NC(=O)c3cc(F)cc(C(F)(F)F)c3)c21 (stereo not shown) [Compound I-262, N-(4-Amino-3-oxo-1-(o-tolyl)-2,3-dihydro-1H-pyrrolo[3,4-c]pyridin-7-yl)-3-fluoro-5-(trifluoromethyl)benzamide] | 100 to 500 nM
51 | N#Cc1cnn2ccc(-c3cc(NC(=O)c4cc(F)cc(C(F)(F)F)c4)c4c(c3)C(=O)N[C@@H]4c3cc(F)ccc3Cl)cc12 [Compound I-1798] | 1000 to 10000 nM
52 | O=C1NC(c2cc(F)ccc2Cl)c2c(NC(=O)N3CCSC(C(F)(F)F)C3)cccc21 (stereo not shown) [Compound I-2340] | 10000 to 100000 nM
53 | O=C1NC(c2cc(F)ccc2Cl)c2c(Nc3cn4ccccc4n3)cc(-c3ccc4ncnn4c3)cc21 (stereo not shown) [Compound I-1668] | 1000 to 10000 nM
54 | NC(=O)Cn1cc(-c2cc(NC(=O)c3cc(F)cc(C(F)(F)F)c3)c3c(c2)C(=O)NC3c2cc(F)ccc2Cl)cn1 (stereo not shown) [Compound I-1481] | ≤ 100 nM
55 | O=C1NC(c2cc(F)ccc2Cl)c2c(NC(=O)[C@@H](O)c3cc(F)cc(F)c3)cc(Br)cc21 (single isomer, unassigned) [Compound I-803] | 10000 to 100000 nM
56 | O=C(Nc1cc(Br)cc2c1C(c1cc(F)ccc1Cl)NC2=O)c1cc(Cl)ccc1F (stereo not shown) [Compound I-794] | 1000 to 10000 nM
57 | O=C1NC(c2cc(F)ccc2Cl)c2c(NC(=O)N3CCCC34CC4)cccc21 (stereo not shown) [Compound I-2467] | 1000 to 10000 nM
58 | O=C(Nc1cc(Br)cc2c1C(c1cc(F)ccc1Cl)NC2=O)c1cc(Cl)cc(Cl)c1 (stereo not shown) [Compound I-521] | ≤ 100 nM
59 | O=C(CC1CCCCC1)Nc1cc(-c2ccc3ncnn3c2)cc2c1C(c1cc(F)ccc1Cl)NC2=O (stereo not shown) [Compound I-1627] | 1000 to 10000 nM
60 | O=C1N[C@@H](c2cc(F)ccc2Cl)c2c(NC(=O)N3C[C@](O)(C(F)(F)F)c4cc(F)ccc43)ccc(Cl)c21 (single isomer, unassigned) [Compound I-2619] | 1000 to 10000 nM
61 | CC(C)(CN)n1cc(-c2cc(NC(=O)N3C[C@](O)(C(F)(F)F)c4cc(F)ccc43)c3c(c2)C(=O)N[C@H]3c2cc(F)ccc2Cl)cn1 (single isomer, unassigned) [Compound I-2652] | 1000 to 10000 nM
